Source: patent US20130012443A1, “METHODS OF TREATMENT OF CENTRAL NERVOUS SYSTEM HEMORRHAGE USING PROTOPORPHYRIN IX-FE COMPOUNDS” (priority 2011, published 2013)
Entries after “also recorded” stand apart in the source; their conditions may differ.

What was measured:
[1] = tested on: mouse model of intracerebral hemorrhage (ICH); assay: Evan's blue leakage (blood-brain barrier disruption) after ICH induced by striatal autologous blood injection; assay type: in vivo, mice
Description: Mice were treated with 26 mg/kg hemin i.p. 1 hour later, as a one-time dose, or repeated in 24 hours; controls received vehicle i.p. only. Evan's blue leakage into the striatal parenchyma, a marker of blood-brain barrier disruption, was quantified at 3 days. […] Sham mice received anesthesia and needle trauma only. *P<0.05, **P<0.01, hemin treated v. vehicle-treated controls.
The effect of protoporphyrin IX-Fe compounds on subsequent exposure of nervous tissue to toxic doses of hemin was investigated. A mouse model of intracerebral hemorrhage (ICH) was used. ICH was induced in mice (6-7/condition, 9-10 weeks old) by injecting 25 μl autologous blood (FIG. 1A) into the right striatum. One hour after hemorrhage induction, mice were treated with (a) hemin at 26 mg/kg as a one-time dose, (b) hemin at 26 mg/kg at 1 hour after induction and then repeated at 25 hours after induction, or (c) sterile saline solution only. […] Mice were then treated with vehicle or hemin 1 hour later, with repeated dose 24 hours later. All treatments were administered via intraperitoneal injection. Three days after hemorrhage induction, brains were harvested after Evans blue injection, and slices were examined for Evan's blue fluorescence. […] Evan's blue leakage into the striatal parenchyma was quantified as a marker of blood-brain barrier disruption (FIGS. 1A-1B).

[2] = tested on: mouse model of intracerebral hemorrhage (ICH); assay: Evan's blue leakage (blood-brain barrier disruption) after ICH induced by collagenase injection; assay type: in vivo, mice; details: 26 mg/kg 1 or 3 hours after collagenase and again 24 h later, v. vehicle
striatal cells = assay: Striatal cell viability by MTT assay after ICH; assay type: in vivo, mice; details: v. vehicle
Description: Intracerebral hemorrhage was modeled in 2-3 month old mice (5-6/condition) by striatal injection of autologous blood (25 μl) or collagenase (0.014 units), followed 1 or 3 hours later by 4 mg/kg hemin i.p. (repeated 24 h later) or vehicle. Five days after ICH, striatal cell viability was quantified by MTT assay. *P<0.05, **P<0.01, hemin treated v. vehicle-treated controls.
Whether protoporphyrin IX-Fe compounds could reduce hemorrhage-induced cell death in nervous tissues was investigated using the same mouse model of ICH. Intracerebral hemorrhage was modeled in 2-3 month old mice (5-6/condition) by striatal injection of autologous blood (25 μl) or collagenase (0.014 units), followed 1 or 3 hours later by 4 mg/kg hemin i.p. (repeated 24 h later) or vehicle. Five days after ICH, striatal cell viability was quantified by MTT assay (Chen et al., J Neurosurg 2011 114:1159-67) after striatal cell dissociation (FIG. 2). ICH was also modeled by striatal injection of […] autologous blood, followed by hemin (26 mg/kg) or vehicle treatment at 3 and 27 hours after ICH.

heme oxygenase-1 (HO-1) = assay: HO-1 expression in mouse brain by immunoblotting; assay type: in vivo; details: 26 mg/kg i.p. for 1 or 2 days, v. saline; for HO-1 expression in cortex (CTX) / HO-1 expression in striatum (STR): 24 hours after last dose, FIG. 4
Description: Mice received 26 mg/kg hemin i.p for 1 or 2 days, or an equal volume of saline. Striatal HO-1 expression was assessed 24 hours after the last hemin dose. Actin levels provide a gel-loading control. *P<0.05 v. expression in saline-treated controls, n=4/conditon.
Mice received 26 mg/kg hemin or heme arginate i.p for 1 or 2 days, or an equal volume of saline. HO-1 expression was assessed 24 hours after last dose. Actin serves as a control.
The response elicited by protoporphyrin IX-Fe compounds was investigated by administering 26 mg/kg hemin, or an equal volume of saline for 1 or 2 days via intraperitoneal injection. Expression of heme oxygenase-1 (HO-1) in striatal cells was assessed 24 hours after the last hemin dose. Four mice were used for each experimental group. Actin was used as a gel-loading control. HO-1 expression was quantified by immunoblotting as previously described (Neuropharmacology 2011 60:423-431); band density was analyzed using Kodak 1D software (Kodak, Rochester, N.Y.) (FIG. 3).
The effect of protoporphyrin IX-Fe compounds on HO-1 expression in nervous tissue was further investigated using heme arginate and examining the response in the cortex in addition to the striatum. Mice received 26 mg/kg hemin or heme arginate for 1 or 2 days, or an equal volume of saline. All treatments were administered intraperitoneally. HO-1 expression was quantified by immunoblotting as previously described (Neuropharmacology 2011 60:423-431).

HO-1 = details: low doses; cited from earlier work
[3] = bound to albumin; cited from earlier work

HO-1 expression in cortex (CTX) (heme oxygenase-1 (HO-1))	HO-1 expression in striatum (STR) (heme oxygenase-1 (HO-1))	Substance	Evan's blue leakage into the striatal parenchyma, a marker of blood-brain barrier disruption ([1]; striatal autologous blood injection, 26 mg/kg i.p. 1 hour later, one-time dose or repeated in 24 hours, quantified at 3 days, v. vehicle, 26 mg/kg)	Evan's blue fluorescence in brain slices ([1]; three days after hemorrhage induction, DsRed filter, data not shown)	Evan's blue leakage into the striatal parenchyma, a marker of blood-brain barrier disruption [2]	striatal cell viability (MTT assay) (striatal cells; autologous blood (25 μl) or collagenase (0.014 units), 4 mg/kg i.p. 1 or 3 hours later, repeated 24 h later, five days after ICH, 4 mg/kg)	MTT staining intensity / tissue viability (striatal cells; autologous blood, 26 mg/kg at 3 and 27 hours after ICH, data not shown)	Striatal HO-1 expression (heme oxygenase-1 (HO-1); 24 hours after the last dose, FIG. 3)	HO-1 expression in cultured cells (HO-1)	blood vessel inflammation and damage (phlebitis) [3]	stability [3]
increases HO-1 expression	increases HO-1 expression	chloride salt of protoporphyrin IX-Fe^3+ [hemin]	attenuated blood-brain barrier disruption following simulated hemorrhage in a dose-dependent manner; also recorded: decreases blood-brain barrier disruption	Reduced fluorescence	decreases blood-brain barrier disruption	increased striatal cell viability; also recorded: increases peri-hematomal cell viability	increased tissue viability	increased expression of HO-1; also recorded: increases expression of the protective enzyme heme oxygenase-1 (HO-1)	could induce HO-1 expression	less blood vessel inflammation and damage (phlebitis)	more stable
increases HO-1 expression	increases HO-1 expression	heme arginate									
